One compound from article PMC13505187, “Fragment-Based Discovery of Fenamic Acids as Pan-Species Inhibitors of the Soluble Epoxide Hydrolase Phosphatase Domain” (ACS Chemical Biology, 2026) can be followed below.

Common to all, as to type: biochemical
One assay addresses T1, human sEH-NTD (Homo sapiens, UniProt P34913).
T1 construct: made in house
T1 sequence (P34913 1-224 limits assumed): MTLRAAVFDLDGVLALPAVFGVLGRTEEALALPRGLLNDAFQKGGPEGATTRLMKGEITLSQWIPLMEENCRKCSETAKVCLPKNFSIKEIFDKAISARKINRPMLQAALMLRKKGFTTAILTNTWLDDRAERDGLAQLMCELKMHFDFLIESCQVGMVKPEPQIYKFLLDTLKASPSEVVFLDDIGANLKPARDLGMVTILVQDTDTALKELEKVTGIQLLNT
Description: FDP-based phosphatase assay, isolated N-terminal domain. As to conditions: phosphatase activity of the isolated N-terminal domain, FDP substrate, pH 5.75; mean ± SD, n = 3. As for the experimental part:
(§1) The FDP assay was performed as published previously by Klingler et al. using frozen sEH-PD as well as full-length human, mouse, and rat sEH. In brief, the assay was performed in a black 96-well microplate in which 1 μL of compound in DMSO (or DMSO only in the case of the positive control) was mixed with 89 μL of protein solution (final concentration of 0.1 μM for sEH-PD, full-length human sEH, and full-length rat sEH and 0.01 μM for full-length mouse sEH) in phosphatase assay buffer (50 mM acetate, 10 mM MgCl2, pH 5.75) supplemented with 0.01% w/v Triton X-100. For the blank, assay buffer without protein was used. The plates were incubated at rt for 30 min to allow binding of the inhibitor. To start the reaction, 10 μL of FDP solution (10 μM final concentration) in assay buffer was added, and the fluorescence changes (λex = 485 nm, λem = 525 nm) were detected at 30 time points over the duration of 30 min using an Infinite F200 PRO plate reader (Tecan, Crailsheim, Germany). All samples were measured in triplicate. The percent inhibition was calculated relative to the activities of the blank well (without protein) and positive control well (without inhibitor).

The next assay deals with T2, human sEH-FL (P) (Homo sapiens, UniProt P34913).
T2 construct: The full-length human sEH was previously published by Lukin et al; made in house
T2 sequence (P34913 1-555): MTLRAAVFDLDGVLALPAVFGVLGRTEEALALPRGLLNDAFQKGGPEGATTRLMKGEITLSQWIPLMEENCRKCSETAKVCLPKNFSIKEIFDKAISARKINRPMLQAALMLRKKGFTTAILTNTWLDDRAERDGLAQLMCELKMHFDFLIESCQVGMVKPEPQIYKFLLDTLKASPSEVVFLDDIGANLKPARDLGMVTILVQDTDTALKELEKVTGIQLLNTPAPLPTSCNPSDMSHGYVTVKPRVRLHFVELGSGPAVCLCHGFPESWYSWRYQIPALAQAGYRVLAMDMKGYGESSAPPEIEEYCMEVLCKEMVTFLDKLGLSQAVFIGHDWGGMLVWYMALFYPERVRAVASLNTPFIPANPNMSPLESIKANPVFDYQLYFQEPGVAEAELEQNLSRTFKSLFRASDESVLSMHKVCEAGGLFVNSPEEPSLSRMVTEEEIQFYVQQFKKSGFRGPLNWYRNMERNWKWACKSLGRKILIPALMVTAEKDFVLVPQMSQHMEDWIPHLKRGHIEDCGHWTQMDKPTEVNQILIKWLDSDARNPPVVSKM
Briefly: FDP-based phosphatase assay, full-length sEH. The following applies: phosphatase activity of the full-length sEH protein, FDP substrate; mean ± SD, n = 3. As for the experimental part:
as §1

A further assay deals with T3, rat sEH-FL (P) (Rattus norvegicus, UniProt P80299).
T3 construct: using frozen sEH-PD as well as full-length human, mouse, and rat sEH
T3 sequence (P80299 1-554): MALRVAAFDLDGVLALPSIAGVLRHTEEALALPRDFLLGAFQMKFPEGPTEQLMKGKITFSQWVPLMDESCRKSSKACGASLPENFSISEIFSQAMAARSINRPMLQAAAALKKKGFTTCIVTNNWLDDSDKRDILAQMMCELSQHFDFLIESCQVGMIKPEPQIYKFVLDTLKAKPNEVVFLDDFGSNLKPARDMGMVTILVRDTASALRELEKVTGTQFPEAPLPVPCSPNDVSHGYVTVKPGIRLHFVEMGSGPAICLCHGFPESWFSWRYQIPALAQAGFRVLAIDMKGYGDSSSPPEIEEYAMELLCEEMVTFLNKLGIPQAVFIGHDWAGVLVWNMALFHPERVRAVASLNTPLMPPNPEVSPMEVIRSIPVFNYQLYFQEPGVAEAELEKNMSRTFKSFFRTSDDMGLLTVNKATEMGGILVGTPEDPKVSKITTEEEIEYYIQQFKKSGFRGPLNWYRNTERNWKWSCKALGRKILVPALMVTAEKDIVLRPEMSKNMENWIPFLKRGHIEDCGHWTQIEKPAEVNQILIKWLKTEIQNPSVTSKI
Description: FDP-based phosphatase assay, full-length sEH. The following applies: phosphatase activity of the full-length sEH protein, FDP substrate; mean ± SD, n = 3. The procedure: as §1

In another assay the target is T4, human sEH-FL (H) (Homo sapiens, UniProt P34913).
T4 construct: The full-length human sEH was previously published by Lukin et al; made in house
T4 sequence (P34913 1-555): T2 sequence (P34913 1-555)
Briefly: PHOME-based hydrolase assay, full-length sEH. As to conditions: hydrolase activity of the full-length sEH protein, PHOME substrate; mean ± SD, n = 3.

Description for human sEH-FL (H): The fluorescence-based sEH hydrolase activity assay was performed as described previously in a 96-well format with some minor modifications. In short, full-length sEH (3 nM final concentration for all tested proteins) was dissolved in hydrolase assay buffer (Bis-Tris buffer, pH 7) supplemented with 0.1 mg mL^–1 BSA as well as Triton-X 100 to a final concentration of 0.01%. Protein solution (89 μL) was incubated with 1 μL of different concentrations of compounds (final DMSO concentration 1%) for 30 min at rt. The reaction was started by addition of 10 μL of a cyano­(6-methoxy-2-naphthalenyl)­methyl 3-phenyloxiran-2-ylacetate (PHOME) solution (final concentration of 50 μM). Hydrolysis of the nonfluorescent substrate by sEH to release fluorescent 6-methoxynaphthaldehyde was measured (λex = 330 nm, λem = 465 nm) using a Tecan Infinite F200PRO plate reader. The reaction was monitored over a duration of 45 min (one point every minute). A blank control (no protein and no compound) and a positive control (no compound) were carried out as well. All measurements were performed in triplicate.

In general, IC50 refers to the concentration that gives 50% inhibition. As to `O=C(O)CCCc1nc(-c2ccc(Cl)c(Cl)c2)c(-c2ccccc2)o1` [Compound 2], the IC50 amounted to 58 ± 5 nM at human sEH-NTD, 4 ± 1 µM against human sEH-FL (P), 2800 ± 2200 nM against rat sEH-FL (P) and 9.5 ± 0.5 µM against human sEH-FL (H).
